Measurements published in patent US10981911B2, “Imidazopyrrolopyridine as inhibitors of the JAK family of kinases” (Janssen Pharmaceutica NV, priority 2016, dated 2021).

Key:
Assay type in all cases: biochemical
JAK3-JH1JH2 = JAK3-JH1JH2 (Homo sapiens (Human), UniProt P52333); experiment: Enzymatic inhibition assay (RapidFire HTMS), JAK3; details: 150 μM ATP, 40 μM substrate
From the text: (§1) LC/MS grade Water and Acetonitrile (ACN), were purchased from HoneyWell, Burdick & Jackson (Muskegon, Mich., USA). Dimethylsulfoxide 99.8% (DMSO) and Trifluoroacetic Acid 99.5% (TFA) were purchased from EMD Chemical (Gibbstown, N.J., USA). Adenosine triphosphate (ATP), 4-Morpholinepropanesulfonic acid (MOPS), Magnesium chloride (MgCl2), ethylenediaminetetraacetic acid (EDTA), dithiothreitol (DTT), formic acid >95% (FA) and Tween-20 were purchased from Sigma (St Louis, Mo., USA). 384-well polypropylene plates, Cat #781280 were purchased from Greiner (Monroe, N.C.), RapidFire™ cartridge A C4 Column (Agilent Technologies, Santa Clara, Calif.).
(§2) The HTMS experiments were performed in positive ionization mode on a RapidFire 300 instrument (Agilent Technologies, Santa Clara, Calif.), coupled with an ABSiex QTrap 4000 system with an Electrospray Ionization source (RF-MS) (Concord, ON, Canada). […] The entire system was operated using the RapidFire software interfaced with Analyst software for the mass spectrometer.
(§3) 11-point dosing series were made for each compound by serially diluting 1:3 or 1:4 in DMSO, with point 12 being a DMSO control. From the serial dilution plates, sample was transferred to a 384 wells assay plate (#781280, Greiner, Monroe, N.C.) using Labcyte Echo (Sunnyvale, Calif.), or Biosero ATS (San Diego, Calif.). The compounds were tested in duplicate. Column 12 was used for positive controls, and column 24 contained negative controls with no enzyme added. A compound from our internal collection, with inhibitory activity for JAK isoforms, was used as a reference compound. […] The Tyk2 enzyme was pre-incubated with 2 mM ATP for 30 min prior to the reaction initiation. Immediately after the addition of the enzyme to the reaction mixture, the plate was centrifuged at 1000 rpm for 1 minute and incubated at 25° C. for 45 minutes for JAK 3 and 90 minutes for JAK1, JAK2 and Tyk2. The reaction was quenched by the addition of 20 μL of 0.5% TFA containing 0.15 μM of internal standard peptide using Multidrop Combi reagent dispenser (Thermo Scientific, Waltham, Mass.). […] After the quench, the assay plate was centrifuged at 3000 rpm for 3 minutes and sealed with pierceable aluminum foil (Cat #06644-001, Agilent) using a PlateLoc (Agilent Technologies, Santa Clara, Calif.). The plates then were transferred on to the RapidFire for the MS analysis. Compound inhibition was assessed by a decrease of the phosphorylated product levels in sample wells compared to the non-inhibited enzyme reaction.
(§4) The sample analysis on the RapidFire was performed using a mobile phase A consisting of Water/TFA/FA (100:0.01:0.1, v/v/v), a mobile phase B consisting of ACN/Water/TFA/FA (80:20:0.01:0.1, v/v/v). […] The samples were aspirated directly from the 384 assay plate and delivered onto RF-MS microscale solid-phase C4 extraction cartridge (Type A). The undesired component such as salt, cofactor, detergent and large protein were washed out and the retained analytes (substrate, product and IS) were coeluted directly onto the ABSiex Qtrap 4000 system.

Tyk2-JH1JH2 = Tyk2-JH1JH2 (Homo sapiens (Human), UniProt P29597, C1142A/C936A); experiment: Enzymatic inhibition assay (RapidFire HTMS), Tyk2; details: 50 μM ATP, 200 μM substrate
From the text: as §1, §2
as §3, with “compound. The final concentration of DMSO was ≤0.25% in a 20 μL reaction.” for “compound.”
as §4

JAK1-JH1JH2 = JAK1-JH1JH2 (Homo sapiens (Human), UniProt P23458); experiment: Enzymatic inhibition assay (RapidFire HTMS), JAK1; details: 12.5 μM ATP, 200 μM substrate; read-out: JAK1-JH2JH1 IC50
From the text: as §1, §2
as §3, with “compound. The final concentration of DMSO was ≤0.25% in a 20 μL reaction.” for “compound.”
as §4

Sequence of Tyk2-JH1JH2 (P29597 580-1182 C936A/C1142A): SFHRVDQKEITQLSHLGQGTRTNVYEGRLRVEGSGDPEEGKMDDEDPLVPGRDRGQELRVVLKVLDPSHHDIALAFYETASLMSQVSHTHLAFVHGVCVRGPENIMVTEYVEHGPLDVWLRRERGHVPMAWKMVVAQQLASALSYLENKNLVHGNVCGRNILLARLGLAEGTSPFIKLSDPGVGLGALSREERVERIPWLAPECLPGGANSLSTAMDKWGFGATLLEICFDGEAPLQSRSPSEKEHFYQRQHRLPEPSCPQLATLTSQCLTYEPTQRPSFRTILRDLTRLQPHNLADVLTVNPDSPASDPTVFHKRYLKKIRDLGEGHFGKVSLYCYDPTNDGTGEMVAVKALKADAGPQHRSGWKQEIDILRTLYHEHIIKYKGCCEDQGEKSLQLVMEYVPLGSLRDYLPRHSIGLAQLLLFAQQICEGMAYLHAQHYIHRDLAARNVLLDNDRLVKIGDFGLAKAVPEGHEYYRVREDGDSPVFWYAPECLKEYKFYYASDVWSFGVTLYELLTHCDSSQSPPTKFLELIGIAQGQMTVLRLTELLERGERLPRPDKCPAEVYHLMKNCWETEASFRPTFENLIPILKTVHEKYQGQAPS
Sequence of JAK1-JH1JH2 (P23458 574-1154): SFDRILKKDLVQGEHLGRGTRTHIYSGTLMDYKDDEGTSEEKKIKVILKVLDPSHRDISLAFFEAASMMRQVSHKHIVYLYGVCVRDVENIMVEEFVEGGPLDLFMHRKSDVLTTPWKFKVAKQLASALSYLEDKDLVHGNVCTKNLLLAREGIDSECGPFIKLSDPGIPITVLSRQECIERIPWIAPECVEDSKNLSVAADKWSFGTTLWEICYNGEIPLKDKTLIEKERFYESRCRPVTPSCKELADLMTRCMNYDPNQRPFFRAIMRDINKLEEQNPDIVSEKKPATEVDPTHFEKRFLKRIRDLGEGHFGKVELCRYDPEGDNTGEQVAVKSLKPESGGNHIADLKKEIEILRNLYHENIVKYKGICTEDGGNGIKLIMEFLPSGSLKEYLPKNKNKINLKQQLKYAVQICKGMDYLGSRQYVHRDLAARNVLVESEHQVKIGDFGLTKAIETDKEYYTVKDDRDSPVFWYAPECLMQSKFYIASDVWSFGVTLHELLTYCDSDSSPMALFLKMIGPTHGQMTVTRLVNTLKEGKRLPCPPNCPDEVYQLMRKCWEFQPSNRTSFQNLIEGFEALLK
Sequence of JAK3-JH1JH2 (P52333 512-1124): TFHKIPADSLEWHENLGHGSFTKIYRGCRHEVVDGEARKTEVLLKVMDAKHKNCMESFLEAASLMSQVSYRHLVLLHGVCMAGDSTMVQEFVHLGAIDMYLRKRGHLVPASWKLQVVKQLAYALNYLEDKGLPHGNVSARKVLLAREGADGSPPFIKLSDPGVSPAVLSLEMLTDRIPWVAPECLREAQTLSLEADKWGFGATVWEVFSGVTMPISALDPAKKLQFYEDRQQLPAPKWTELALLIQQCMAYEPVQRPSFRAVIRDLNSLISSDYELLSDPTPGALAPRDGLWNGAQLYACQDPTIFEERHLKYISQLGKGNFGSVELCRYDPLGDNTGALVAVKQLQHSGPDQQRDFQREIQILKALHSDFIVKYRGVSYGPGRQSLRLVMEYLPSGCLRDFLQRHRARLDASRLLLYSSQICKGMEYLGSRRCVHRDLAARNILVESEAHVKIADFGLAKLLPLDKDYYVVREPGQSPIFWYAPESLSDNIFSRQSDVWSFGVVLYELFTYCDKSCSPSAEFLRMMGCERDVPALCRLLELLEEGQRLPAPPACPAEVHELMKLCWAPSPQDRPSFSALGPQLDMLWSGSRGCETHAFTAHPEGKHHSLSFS

COCCNC(=O)c1nc2cnc3[nH]ccc3c2n1[C@H]1CC[C@H](CC#N)CC1 [Ex. 145, 1-((1r,4r)-4-(Cyanomethyl)cyclohexyl)-N-(2-methoxyethyl)-1,6-dihydroimidazo[4,5-d]pyrrolo[2,3-b]pyridine-2-carboxamide]
IC50 (JAK3-JH1JH2): 175 nM
IC50 (Tyk2-JH1JH2): 19.4 nM
IC50 (JAK1-JH1JH2): 1.1 nM

N#CC[C@H]1CC[C@H](n2c(-c3cn[nH]c3)nc3cnc4[nH]ccc4c32)CC1 [Ex. 123, 2-((1r,4r)-4-(2-(1H-pyrazol-4-yl)imidazo[4,5-d]pyrrolo[2,3-b]pyridin-1(6H)-yl)cyclohexyl)acetonitrile]
IC50 (JAK3-JH1JH2): 146 nM
IC50 (Tyk2-JH1JH2): 11.6 nM
IC50 (JAK1-JH1JH2): 0.7 nM

CC(C)(C)COC(=O)NCc1nc2cnc3[nH]ccc3c2n1[C@H]1CC[C@H](CC#N)CC1 [Ex. 154, Neopentyl ((1-((1r,4r)-4-(Cyanomethyl)cyclohexyl)-1,6-dihydroimidazo[4,5-d]pyrrolo[2,3-b]pyridin-2-yl)methyl)carbamate]
IC50 (JAK3-JH1JH2): 408 nM
IC50 (Tyk2-JH1JH2): 16.1 nM
IC50 (JAK1-JH1JH2): 1.2 nM

N#CC[C@H]1CC[C@H](n2c(CC(=O)NCC3CCCCC3)nc3cnc4[nH]ccc4c32)CC1 [Ex. 69, 2-(1-((1r,4r)-4-(Cyanomethyl)cyclohexyl)-1,6-dihydroimidazo[4,5-d]pyrrolo[2,3-b]pyridin-2-yl)-N-(cyclohexylmethyl)acetamide]
IC50 (JAK3-JH1JH2): 111 nM
IC50 (Tyk2-JH1JH2): 15.6 nM
IC50 (JAK1-JH1JH2): 0.3 nM

N#CC[C@H]1CC[C@H](n2c(CN/C(Cc3ccccc3)=N\O)nc3cnc4[nH]ccc4c32)CC1 [Ex. 103, (EZ)—N-((1-((1r,4r)-4-(Cyanomethyl)cyclohexyl)-1,6-dihydroimidazo[4,5-d]pyrrolo[2,3-b]pyridin-2-yl)methyl)-N-hydroxy-2-phenylacetimidamide]
IC50 (JAK3-JH1JH2): 459 nM
IC50 (Tyk2-JH1JH2): 11.3 nM
IC50 (JAK1-JH1JH2): 0.5 nM

N#CC[C@H]1CC[C@H](n2c(CC(=O)NC34CC5CC(CC(O)(C5)C3)C4)nc3cnc4[nH]ccc4c32)CC1 [Ex. 52, 2-(1-((1r,4r)-4-(Cyanomethyl)cyclohexyl)-1,6-dihydroimidazo[4,5-d]pyrrolo[2,3-b]pyridin-2-yl)-N-((1s,3r,5R,7S)-3-hydroxyadamantan-1-yl)acetamide]
IC50 (JAK3-JH1JH2): 57.5 nM
IC50 (Tyk2-JH1JH2): 4.4 nM
IC50 (JAK1-JH1JH2): 0.2 nM

N#CC[C@H]1CC[C@H](n2c(CC(=O)N3CCC(C(F)(F)F)CC3)nc3cnc4[nH]ccc4c32)CC1 [Ex. 6, 2-((1r,4r)-4-(2-(2-Oxo-2-(4-(trifluoromethyl)piperidin-1-yl)ethyl)imidazo[4,5-d]pyrrolo[2,3-b]pyridin-1(6H)-yl)cyclohexyl)acetonitrile]
IC50 (JAK3-JH1JH2): 49.4 nM
IC50 (Tyk2-JH1JH2): 0.4 nM

CC(C)(CO)CNC(=O)Cc1nc2cnc3[nH]ccc3c2n1[C@H]1CC[C@H](CC#N)CC1 [Ex. 15, 2-(1-((1r,4r)-4-(Cyanomethyl)cyclohexyl)-1,6-dihydroimidazo[4,5-d]pyrrolo[2,3-b]pyridin-2-yl)-N-(3-hydroxy-2,2-dimethylpropyl)acetamide]
IC50 (JAK3-JH1JH2): 54.5 nM
IC50 (JAK1-JH1JH2): 0.1 nM

N#CC[C@H]1CC[C@H](n2c(Cc3ccn[nH]3)nc3cnc4[nH]ccc4c32)CC1 [Ex. 25, 2-((1r,4r)-4-(2-((1H-Pyrazol-5-yl)methyl)imidazo[4,5-d]pyrrolo[2,3-b]pyridin-1(6H)-yl)cyclohexyl)acetonitrile]
IC50 (JAK3-JH1JH2): 77.9 nM
IC50 (Tyk2-JH1JH2): 5.3 nM
IC50 (JAK1-JH1JH2): 0.1 nM

N#CC[C@H]1CC[C@H](n2c(-c3cn[nH]n3)nc3cnc4[nH]ccc4c32)CC1 [Ex. 16, 2-((1r,4r)-4-(2-(2H-1,2,3-Triazol-4-yl)imidazo[4,5-d]pyrrolo[2,3-b]pyridin-1(6H)-yl)cyclohexyl)acetonitrile]
IC50 (JAK3-JH1JH2): 37.7 nM
IC50 (Tyk2-JH1JH2): 3.7 nM
IC50 (JAK1-JH1JH2): 0.1 nM

C[Si](C)(C)C1CCC(c2nc3cnc4[nH]ccc4c3n2[C@H]2CC[C@H](CC#N)CC2)CC1 (stereo partly drawn) [Ex. 100, 2-((1r,4r)-4-(2-(4-(Trimethylsilyl)cyclohexyl)imidazo[4,5-d]pyrrolo[2,3-b]pyridin-1(6H)-yl)cyclohexyl)acetonitrile]
IC50 (JAK3-JH1JH2): > 6250 nM
IC50 (Tyk2-JH1JH2): 2280 nM
IC50 (JAK1-JH1JH2): 72 nM

N#CC[C@H]1CC[C@H](n2c(CC(=O)Nc3ccc(C(O)(C(F)(F)F)C(F)(F)F)cc3)nc3cnc4[nH]ccc4c32)CC1 [Ex. 104, 2-(1-((1r,4r)-4-(Cyanomethyl)cyclohexyl)-1,6-dihydroimidazo[4,5-d]pyrrolo[2,3-b]pyridin-2-yl)-N-(4-(1,1,1,3,3,3-hexafluoro-2-hydroxypropan-2-yl)phenyl)acetamide]
IC50 (JAK3-JH1JH2): 298 nM
IC50 (Tyk2-JH1JH2): 12.6 nM
IC50 (JAK1-JH1JH2): 0.5 nM

N#CC[C@H]1CC[C@H](n2c(CC(=O)NCc3ccccc3)nc3cnc4[nH]ccc4c32)CC1 [Ex. 48, N-Benzyl-2-(1-((1r,4r)-4-(cyanomethyl)cyclohexyl)-1,6-dihydroimidazo[4,5-d]pyrrolo[2,3-b]pyridin-2-yl)acetamide]
IC50 (JAK3-JH1JH2): 193 nM
IC50 (Tyk2-JH1JH2): 11.2 nM
IC50 (JAK1-JH1JH2): 0.2 nM

N#CC[C@H]1CC[C@H](n2c(CC(=O)NCC34CC5CC(CC(O)(C5)C3)C4)nc3cnc4[nH]ccc4c32)CC1 [Ex. 21, 2-(1-((1r,4r)-4-(Cyanomethyl)cyclohexyl)-1,6-dihydroimidazo[4,5-d]pyrrolo[2,3-b]pyridin-2-yl)-N-(((1S,3R,5R,7S)-3-hydroxyadamantan-1-yl)methyl)acetamide]
IC50 (JAK3-JH1JH2): 55.1 nM
IC50 (Tyk2-JH1JH2): 3.5 nM
IC50 (JAK1-JH1JH2): 0.1 nM

N#CC[C@H]1CC[C@H](n2c(-c3cocn3)nc3cnc4[nH]ccc4c32)CC1 [Ex. 11, 2-((1r,4r)-4-(2-(Oxazol-4-yl)imidazo[4,5-d]pyrrolo[2,3-b]pyridin-1(6H)-yl)cyclohexyl)acetonitrile]
IC50 (JAK3-JH1JH2): 33.5 nM
IC50 (Tyk2-JH1JH2): 1.2 nM
IC50 (JAK1-JH1JH2): 0.1 nM

N#CC[C@H]1CC[C@H](n2c(CO/N=C(\N)CN3CCCCC3)nc3cnc4[nH]ccc4c32)CC1 [Ex. 153, (Z*)—N′-((1-((1r,4r)-4-(Cyanomethyl)cyclohexyl)-1,6-dihydroimidazo[4,5-d]pyrrolo[2,3-b]pyridin-2-yl)methoxy)-2-(piperidin-1-yl)acetimidamide]
IC50 (JAK3-JH1JH2): 512 nM
IC50 (JAK1-JH1JH2): 3.7 nM

N#CC[C@H]1CC[C@H](n2c(C(=O)NCC3(O)CCCCCC3)nc3cnc4[nH]ccc4c32)CC1 [Ex. 136, 1-((1r,4r)-4-(Cyanomethyl)cyclohexyl)-N-((1-hydroxycycloheptyl)methyl)-1,6-dihydroimidazo[4,5-d]pyrrolo[2,3-b]pyridine-2-carboxamide]
IC50 (JAK3-JH1JH2): 65.9 nM
IC50 (Tyk2-JH1JH2): 19.1 nM
IC50 (JAK1-JH1JH2): 0.9 nM

N#CC[C@H]1CC[C@H](n2c(CNC(=O)Nc3ccccc3)nc3cnc4[nH]ccc4c32)CC1 [Ex. 70, 1-((1-((1r,4r)-4-(Cyanomethyl)cyclohexyl)-1,6-dihydroimidazo[4,5-d]pyrrolo[2,3-b]pyridin-2-yl)methyl)-3-phenylurea]
IC50 (JAK3-JH1JH2): 108 nM
IC50 (Tyk2-JH1JH2): 9.4 nM
IC50 (JAK1-JH1JH2): 0.4 nM
